“And” between values parts separate entries of the source, which are not always exact repeats. Equal values may be shown once. Toxic doses and inconclusive results are not listed. How the source made its calls: active means survival T/C of 150% or more; inactive means T/C below 125% in these data.
Tested on: AKR/Lw mice, AKR lymphoma ip, median survival T/C
Assay: NCI In Vivo Anticancer Drug Screen. Data for tumor model Lymphoma AKR (Transplanted) (intraperitoneal) in AKR/Lw mice
Conditions: endpoint: median survival time, higher = longer survival
Procedure: The antitumor activity of compounds was measured in mice bearing transplantable tumors. Survival or tumor size were measured and the results are expressed as the measurement made in the treated group (T) divided by the measurement made in the vehicle treated control group (C). The tumor model used in this assay is Lymphoma AKR (Transplanted) (intraperitoneal) in AKR/Lw mice

[1] = dose: 100.0 mg/kg/injection, schedule: Q01DX001 (ip), vehicle: saline
[2] = dose: 200.0 mg/kg/injection, schedule: Q01DX001 (ip), vehicle: saline
[3] = dose: 0.5 mg/kg/injection, schedule: Q04DX003 (ip), vehicle: saline
[4] = dose: 1.0 mg/kg/injection, schedule: Q04DX003 (ip), vehicle: saline
[5] = dose: 10.0 mg/kg/injection, schedule: Q04DX003 (ip), vehicle: saline
[6] = dose: 15.0 mg/kg/injection, schedule: Q01DX009 (ip), vehicle: saline

Measured: T/C

N=Cc1c(O)[nH]c(=O)[nH]c1=O
inactive: [1] 105 % of control | dose: 100.0 mg/kg/injection, schedule: Q04DX003 (ip), vehicle: Klucel (hydroxypropylcellulose) (HPC) 100 % of control | [2] 119 % of control | dose: 200.0 mg/kg/injection, schedule: Q04DX003 (ip), vehicle: Klucel (hydroxypropylcellulose) (HPC) 93 % of control | dose: 400.0 mg/kg/injection, schedule: Q01DX001 (ip), vehicle: saline 88 % of control

S=P(N1CC1)(N1CC1)N1CC1
inactive: dose: 0.1 mg/kg/injection, schedule: Q01DX009 (ip), vehicle: saline 110 % of control | dose: 0.25 mg/kg/injection, schedule: Q01DX009 (ip), vehicle: saline 87 % of control | dose: 0.5 mg/kg/injection, schedule: Q01DX009 (ip), vehicle: saline 90 % of control | [3] 117 % of control | dose: 1.0 mg/kg/injection, schedule: Q01DX009 (ip), vehicle: saline 108 % of control and 112 % of control and 117 % of control | [4] 120 % of control | dose: 1.2 mg/kg/injection, schedule: Q04DX003 (ip), vehicle: saline 100 % of control | dose: 1.5 mg/kg/injection, schedule: Q01DX001 (ip), vehicle: saline 106 % of control | dose: 2.0 mg/kg/injection, schedule: Q01DX009 (ip), vehicle: saline 111 % of control | dose: 2.5 mg/kg/injection, schedule: Q01DX001 (ip), vehicle: saline 104 % of control | dose: 2.5 mg/kg/injection, schedule: Q04DX003 (ip), vehicle: saline 87 % of control and 112 % of control and 117 % of control | dose: 3.0 mg/kg/injection, schedule: Q01DX001 (ip), vehicle: saline 109 % of control | dose: 3.0 mg/kg/injection, schedule: Q04DX003 (ip), vehicle: saline 122 % of control | dose: 3.75 mg/kg/injection, schedule: Q01DX009 (ip), vehicle: saline 116 % of control | dose: 5.0 mg/kg/injection, schedule: Q01DX001 (ip), vehicle: saline 95 % of control and 100 % of control and 103 % of control | dose: 6.0 mg/kg/injection, schedule: Q01DX001 (ip), vehicle: saline 104 % of control and 106 % of control | dose: 6.2 mg/kg/injection, schedule: Q01DX001 (ip), vehicle: saline 118 % of control | dose: 6.25 mg/kg/injection, schedule: Q01DX001 (ip), vehicle: saline 123 % of control | dose: 7.5 mg/kg/injection, schedule: Q01DX001 (ip), vehicle: saline 102 % of control and 116 % of control | dose: 7.5 mg/kg/injection, schedule: Q01DX009 (ip), vehicle: saline 105 % of control | dose: 10.0 mg/kg/injection, schedule: Q01DX001 (ip), vehicle: saline 111 % of control | [5] 87 % of control | [6] 88 % of control | dose: 16.0 mg/kg/injection, schedule: Q04DX003 (ip), vehicle: saline 97 % of control | dose: 12.0 micrograms/kg/injection, schedule: Q01DX009 (ip), vehicle: saline 111 % of control | dose: 12.5 micrograms/kg/injection, schedule: Q01DX009 (ip), vehicle: saline 102 % of control | dose: 25.0 micrograms/kg/injection, schedule: Q01DX009 (ip), vehicle: saline 100 % of control and 111 % of control | dose: 50.0 micrograms/kg/injection, schedule: Q01DX009 (ip), vehicle: saline 105 % of control | dose: 100.0 micrograms/kg/injection, schedule: Q01DX009 (ip), vehicle: saline 94 % of control and 108 % of control | dose: 200.0 micrograms/kg/injection, schedule: Q01DX009 (ip), vehicle: saline 102 % of control

COc1ccc(C2c3cc4c(c(OC)c3CC3OCC(=O)C32)OCO4)cc1OC (centres undefined)
inactive: dose: 25.0 mg/kg/injection, schedule: Q01DX009 (ip), vehicle: Klucel (hydroxypropylcellulose) (HPC) 110 % of control | dose: 50.0 mg/kg/injection, schedule: Q01DX009 (ip), vehicle: Klucel (hydroxypropylcellulose) (HPC) 103 % of control

CC(C)OC(=O)Oc1cccc2c1C(=O)c1ccccc1C2=O
inactive: dose: 100.0 mg/kg/injection, schedule: Q01DX001 (ip), vehicle: Klucel (hydroxypropylcellulose) (HPC) 95 % of control | dose: 200.0 mg/kg/injection, schedule: Q01DX001 (ip), vehicle: Klucel (hydroxypropylcellulose) (HPC) 91 % of control

COc1ccc(S(=O)O)cc1NC(C)=O
inactive: dose: 50.0 mg/kg/injection, schedule: Q04DX003 (ip), vehicle: other 95 % of control | [1] 107 % of control | dose: 100.0 mg/kg/injection, schedule: Q04DX003 (ip), vehicle: other 97 % of control | [2] 101 % of control | dose: 200.0 mg/kg/injection, schedule: Q04DX003 (ip), vehicle: other 95 % of control

CN(C)C(=O)c1cccc(COc2ccc(N3C(N)=NC(N)=NC3(C)C)cc2Cl)c1
inactive: dose: 0.25 mg/kg/injection, schedule: Q04DX003 (ip), vehicle: saline 105 % of control | [3] 108 % of control | [4] 97 % of control | dose: 1.2 mg/kg/injection, schedule: Q01DX009 (ip), vehicle: saline 100 % of control | dose: 1.25 mg/kg/injection, schedule: Q01DX009 (ip), vehicle: saline 106 % of control | dose: 2.0 mg/kg/injection, schedule: Q04DX003 (ip), vehicle: saline 114 % of control | dose: 3.1 mg/kg/injection, schedule: Q01DX009 (ip), vehicle: saline 100 % of control | dose: 4.0 mg/kg/injection, schedule: Q04DX003 (ip), vehicle: saline 114 % of control | dose: 6.2 mg/kg/injection, schedule: Q01DX009 (ip), vehicle: saline 94 % of control and 97 % of control and 108 % of control | dose: 8.0 mg/kg/injection, schedule: Q04DX003 (ip), vehicle: water 100 % of control | [5] 105 % of control | dose: 12.0 mg/kg/injection, schedule: Q01DX001 (ip), vehicle: saline 112 % of control | [6] 112 % of control | dose: 16.0 mg/kg/injection, schedule: Q04DX003 (ip), vehicle: water 109 % of control | dose: 18.0 mg/kg/injection, schedule: Q04DX003 (ip), vehicle: saline 109 % of control | dose: 25.0 mg/kg/injection, schedule: Q01DX001 (ip), vehicle: saline 112 % of control | dose: 32.0 mg/kg/injection, schedule: Q04DX003 (ip), vehicle: water 120 % of control | dose: 35.0 mg/kg/injection, schedule: Q04DX003 (ip), vehicle: saline 116 % of control and 120 % of control | dose: 37.5 mg/kg/injection, schedule: Q04DX003 (ip), vehicle: saline 116 % of control | dose: 64.0 mg/kg/injection, schedule: Q04DX003 (ip), vehicle: water 105 % of control
